{"source": "patent US8067039B2", "about": "“Extract of plant Dendrobii caulis and preparing process thereof” (National Yang-Ming University, priority 2003, dated 2011)", "tested_on": "RPE cell", "assay": "Proteolytic activity of cultured RPE cell extracts on AGE-BSA (electrophoresis, ImageQuant)", "type": "cell-based, bovine", "details": "50 ng/ml HGF", "description": "1×10^6 RPE cells are seeded into the 96-well microplate, containing 10% FCS in DMEM, at 37° C., supplied with 5% CO2. After incubation of 48 hrs, five sets of experiment are treated with the Dendrobii Caulis crude extract, in which each set of experiment includes two microplates for different treating time. After treating for 36 or 48 hrs, 0.01% EDTA is added into the microplate for harvesting the cells, and then the cells are suspended in the […]. Then, the cell solution is centrifuged for 5 min at 1200 rpm, and the cells are suspended back into 10 ml DEME twice. Then, the cell solution is centrifuged again, and is suspended back again with the 0.7 ml Homogenization buffer (50 mM sodium acetate buffer, pH4.5, 1 mM DTT, 0.15M NaCl, 3 mM NaN3) containing 0.1% TritonX-100. Then, the cell solution is vibrated by a sonicator for 15 sec, four cycles, for breaking the cell completely. […] The protein concentration is detected. […]\n1×10^6 RPE cells are seeded into the 96-well microplate, containing 10% FCS in DMEM, at 37° C., supplied with 5% CO2. […] After treating for 36 or 48 hrs, 0.01% EDTA is added into the microplate for harvesting the cells, and then the cells are suspended in the DMEM and the cell number is counted. […]", "data": [{"substance": "HGF: hepatocyte growth factor, used at 50 ng/ml as comparison treatment", "values": [{"measurement": "proteolytic activity of cultured RPE cell vs control set", "setting": "48 hours, FIG. 32", "result": "a little bit greater"}, {"measurement": "amount of AGE-BSA", "setting": "FIG. 33", "result": "obviously decreased"}]}]}
